Key:
C. albicans = experiment: Full skin model infected with spores, treatment, histology (PAS-staining); format: cell-based, Candida albicans; settings: over 72 h, sertaconazol 800, ciclopiroxolamin 400, terbinafin 1600 µg/mL, Fig. 7
From the text: (§1) For an application in vivo, there is the additional requirement for the antimycotic substances to evoke a targeted antimycotic activity in the presence of human cells. Thus, 3D-cell-cultures such as full skin models are used to simulate the in vivo conditions. Such full skin models are for example described in Reddersen K, Wiegand C, Elsner P, Hipler UC. Three-dimensional human skin model infected with Staphylococcus aureus as a tool for evaluation of bioactivity and biocompatibility of antiseptics. Int J Antimicrob Agents. 2019; 54(3):283-291; Wiegand C, Fink S, Beier O, Horn K, Pfuch A, Schimanski A, Grünler B, Hipler UC, Elsner P. Dose- and Time-Dependent Cellular Effects of Cold Atmospheric Pressure Plasma Evaluated in 3D Skin Models. Skin Pharmacol Physiol. 2016;29(5):257-265. Particularly, such full skin models are made of a collagen matrix, which is colonized with primary human fibroblasts, and a fully differentiated epidermis made of primary human keratinocytes. For the experiments, the model is infected in vitro with spores, such that a determination of the sporistatic or sporicidal influence of the substances to be examined at in vivo relevant conditions is allowed. Compared to a 2D-model, the 3D full skin model has the advantage that the cells are in their natural three-dimensional surrounding and show a corresponding behaviour. Such, the antimycotic and sporistatic or sporicidal effects can be examined in situ and in the presence of human cells.
(§2) The spore suspensions and the solutions of sertaconazol, ciclopiroxolamin and terbinafin were prepared as in Example 1, wherein the respective test concentrations were obtained by diluting these solutions in ultrapure water (WFI; Fresenius Kabi) instead of SGB (Merck). Full skin models were produced as previously described [Reddersen K, Wiegand C, Elsner P, Hipler UC. […] 2019; 54(3):283-291; Wiegand C, Fink S, Beier O, Horn K, Pfuch A, Schimanski A, Grünler B, Hipler UC, Elsner P. Dose- and Time-Dependent Cellular Effects of Cold Atmospheric Pressure Plasma Evaluated in 3D Skin Models. […]

S. brevicaulis = experiment: as above; format: cell-based, Scopulariopsis brevicaulis; settings: 48 h and 72 h, sertaconazol 100, ciclopiroxolamin 400, terbinafin 100 µg/mL, Fig. 6, stated as 'the same applies' as for E. floccosum
From the text: as §1, §2

Row | SMILES | outgrowth of C. albicans (C. albicans) | outgrowth of S. brevicaulis (S. brevicaulis)
1 | Cc1cc(C2CCCCC2)n(O)c(=O)c1 [Ciclopiroxolamin, ciclopiroxolamin] | much lower effect | only reduced
2 | Clc1ccc(C(Cn2ccnc2)OCc2csc3c(Cl)cccc23)c(Cl)c1 (stereo not drawn) [Sertaconazol, sertaconazol] | clearly reduced | inhibited
3 | CN(C/C=C/C#CC(C)(C)C)Cc1cccc2ccccc12 [Terbinafin, terbinafin] | much lower effect | only reduced
